Data: patent US5811405A (Hoechst Aktiengesellschaft, priority 1996, dated 1998)
Each block holds one molecule with its values, some of them ahead of it.

How the values were obtained:
[1] = test system: adhesion of leukocytes to the endothelium; assay: Leukocyte adhesion in vivo (intravital microscopy on the rat mesentery, LPS-induced); conditions: 10 mg/kg i.v., SPRD(m) rat, LPS 15 mg/kg 15 min after test substance; vs untreated controls
From the text: Leukocyte adhesion--Examination of the efficacy of the compounds according to the invention in vivo (intravital microscopy on the rat):
The induced adhesion of leukocytes is quantified in the rat mesentery using an intravital microscopic investigation technique (Atherton A. and Born G. V. R., Quantitative investigations of the adhesiveness of circulating polymorphonuclear leukocytes to blood vessel walls. J. Physiol. 222, 447-474, 1972); herein incorporated by reference. A prolonged anesthesia is instituted, under inhalation anesthesia with ether, by injecting urethane ([…] of body weight) intramuscularly. Blood vessels (femoral vein for injection of substances and carotid artery for measuring blood pressure) are exposed by dissection and catheters are then tied into them. After that, the corresponding transparent tissue (mesentery) is exposed spread out on a microscope stage and overlaid with paraffin oil at 37° C. […] The resulting increase in the adhesion of leukocytes to the endothelium is quantified directly by means of vital microscopy or using fluorescence dyes. […] The number of rolling leukocytes (i.e. all leukocytes which are visibly rolling and which are slower than the flowing erythrocytes) and the number of leukocytes which are adhering to the endothelium (dwell time longer than 5 seconds) are recorded every 10 minutes for a period of 60 minutes. […]

E selectin = biological target: T1, E selectin (Homo sapiens, UniProt P16581); assay: HL60 cell adhesion assay on recombinant, soluble E selectin-IgG1 fusion protein; type: cell-based; conditions: HL60 cells
T1 construct: formed from the extracytoplasmic domain of either E selectin or P selectin; made in house; host or cells: COS-7 cells (ATCC), transient transfection with DEAE dextran; secreted into culture supernatant, captured on anti-human IgG
T1 sequence (P16581 22-556): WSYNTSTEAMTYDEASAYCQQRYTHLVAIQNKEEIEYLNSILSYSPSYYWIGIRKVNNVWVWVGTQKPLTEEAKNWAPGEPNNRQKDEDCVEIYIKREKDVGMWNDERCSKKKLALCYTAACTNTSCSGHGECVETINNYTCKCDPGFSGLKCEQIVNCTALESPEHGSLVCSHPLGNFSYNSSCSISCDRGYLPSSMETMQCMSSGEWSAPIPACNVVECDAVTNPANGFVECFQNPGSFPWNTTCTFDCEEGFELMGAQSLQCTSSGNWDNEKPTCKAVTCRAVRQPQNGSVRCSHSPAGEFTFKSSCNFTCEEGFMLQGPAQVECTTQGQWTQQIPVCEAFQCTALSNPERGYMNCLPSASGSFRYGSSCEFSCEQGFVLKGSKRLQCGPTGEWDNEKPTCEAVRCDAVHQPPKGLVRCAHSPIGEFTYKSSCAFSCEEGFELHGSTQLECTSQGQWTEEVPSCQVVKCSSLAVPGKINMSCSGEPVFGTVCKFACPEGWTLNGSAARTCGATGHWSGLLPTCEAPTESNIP
From the text: (§1) Primary assays for investigating the effect of the compounds according to the present invention on the adherence of cells to recombinant, soluble selectin fusion proteins.
(§2) In order to test the efficacy of the compounds according to the invention of the interaction between the E and P selectins (old nomenclature, ELAM-1 and GMP-140, respectively) and their ligands, an assay is used which is in each case specific for only one of these interactions. The ligands are presented in their natural form as surface structures on promyelocytic HL60 cells. […] Recombinantly prepared soluble fusion proteins, formed from the extracytoplasmic domain of either E selectin or P selectin and the constant region of a human immunoglobulin of the IgG1 subclass, were used as binding partners.
Preparation of L selektin-IgG1
The gene construct "ELAM-Rg", published by Walz et al., 1990, was used to prepare soluble […] fusion protein.
For the purposes of expression, the plasmid DNA was transfected into COS-7 cells (ATCC) using DEAE dextran (molecular biological methods: see Ausubel, F. M., Brent, R., Kingston, R. E., Moore, D. D., Seidman, J. G., Struhl, K. and Smith, J. A. 1990. Current Protocols in Molecular Biology, John Wiley, New York). […]

P selectin = biological target: T2, P selectin (Homo sapiens, UniProt P16109); assay: HL60 cell adhesion assay on recombinant, soluble P selectin-IgG1 fusion protein; type: cell-based; conditions: HL60 cells
T2 construct: formed from the extracytoplasmic domain of either E selectin or P selectin; made in house; culture supernatant, captured on anti-human IgG
T2 sequence (P16109 42-771): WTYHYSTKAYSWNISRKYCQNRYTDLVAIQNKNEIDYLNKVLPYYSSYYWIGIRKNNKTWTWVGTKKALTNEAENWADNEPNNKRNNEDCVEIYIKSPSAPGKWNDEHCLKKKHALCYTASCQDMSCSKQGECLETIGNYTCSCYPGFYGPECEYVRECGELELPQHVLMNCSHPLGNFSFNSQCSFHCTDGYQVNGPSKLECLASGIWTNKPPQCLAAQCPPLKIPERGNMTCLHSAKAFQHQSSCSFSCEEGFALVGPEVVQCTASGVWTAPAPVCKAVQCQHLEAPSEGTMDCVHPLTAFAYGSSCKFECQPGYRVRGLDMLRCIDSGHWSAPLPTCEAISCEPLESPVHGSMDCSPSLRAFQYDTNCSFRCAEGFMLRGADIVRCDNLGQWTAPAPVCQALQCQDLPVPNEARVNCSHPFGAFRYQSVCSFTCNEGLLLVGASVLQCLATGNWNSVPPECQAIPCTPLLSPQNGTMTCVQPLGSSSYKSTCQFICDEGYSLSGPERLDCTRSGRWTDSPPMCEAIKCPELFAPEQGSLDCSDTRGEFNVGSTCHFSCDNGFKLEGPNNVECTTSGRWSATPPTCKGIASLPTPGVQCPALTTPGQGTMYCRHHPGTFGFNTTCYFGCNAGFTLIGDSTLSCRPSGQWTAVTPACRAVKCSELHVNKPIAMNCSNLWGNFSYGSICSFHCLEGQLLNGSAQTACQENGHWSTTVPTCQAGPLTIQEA
From the text: as §1, §2
Preparation of P selectin-IgG1
The gene construct "CD62Rg", published by Aruffo et al., 1991, is used to prepare the soluble P selectin-IgG1 fusion protein. The subsequent procedure corresponds to the preparation of L selectin-IgG1 which was described in A1. Aruffo, A., Kolanus, W., Walz, G., Fredman, P. and Seed, B. 1991. CD62/-P-Selectin recognition of myeloid and tumor cell sulfatides. Cell 67, 35-44. […]
7. The quantity of BCECF-AM-labeled cells adhering in the wells is measured in a cytofluorimeter (Millipore) at a sensitivity setting of 4, an excitation wavelength of 485/22 nm and an emission wavelength of 530/25 nm.

neutrophil adhesion = assay: Reperfusion model on the open rabbit heart (Langendorff), leukocyte accumulation and arrhythmias; conditions: perfused rabbit heart, 30 min ischemia, 30 min reperfusion; vs untreated hearts
Method: Reperfusion model for investigating the influence of neutrophil adhesion in the course of ischemialreperfusion carried out on the open rabbit heart.
The hearts are perfused with nutrient solution, and also with/without leukocytes and/or active compound, at constant pressure using the Langendorff technique. After that, an ischemia is elicited by ligating the left coronary artery (30 min). Following reperfusion (30 min), the accumulation of leukocytes is evaluated histologically. During the course of the experiment, potentials and arrhythmias are measured at 256 electrodes (total duration of the experiment, approx. 90 min). […] The compounds according to the present invention, and also their physiologically tolerated salts, are very well suited, owing to their valuable pharmacological properties, for use as medicines in mammals, in particular humans.

[2] = test system: myocardial reperfusion injuries; conditions: M. Buerke et al., 1994; cited from earlier work
selectin receptors = conditions: all known in-vitro test systems; Jacob et al., 1995; read-out: IC50 (inhibition of cell adhesion to selectin receptors); cited from earlier work

IC50 (E selectin): 500 to 1500 µM
IC50 (P selectin): 3500 to 4100 µM
Molecule: C[C@@H]1O[C@@H](O[C@H](COCCCCCC(C(=O)O)C(=O)O)[C@@H](COCCCCCC(C(=O)O)C(=O)O)O[C@@H]2O[C@@H](C)[C@@H](O)[C@@H](O)[C@@H]2O)[C@@H](O)[C@H](O)[C@@H]1O [Compound 6a, 1,4-bis(5-malonyl-1-pentyloxy)-2,3-bis(α-L-fucopyranosyl)-D-threitol]
inhibition (of leukocyte adhesion) [1]: 39%

Molecule: chondroitin sulfate
arrhythmias (neutrophil adhesion): fewer arrhythmias
leukocyte accumulation (neutrophil adhesion): less leukocyte accumulation

Molecule: sialyl Lewis X [SLeX]
use in animal experiments, myocardial reperfusion injuries [2]: used successfully
IC50 (selectin receptors): ~1000 µM
